Patent publication US12281122B1, “PI3K inhibitors” (Cogent Biosciences, Inc., priority 2023, dated 2025)

Tests used:
[1] = system: SKBR3 (PI3Kα-Wild Type) cell line; experiment: HTRF phospho-AKT(S473) cell assay in SKBR3 cells; type: cell-based, human
Outline: (§1)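 T47D (PI3Kα-H1047R; RPMI, 10% FBS, insulin) and SKBR3 (wild-type PI3Kα; McCoy's 5A, 10% FBS) cells treated 2 h at 37 °C with 12-point 1:3 dilutions, top 5 μM and 10 μM respectively, ≤0.5% DMSO. SKBR3 stimulated with 70 ng/ml PDGF-BB for the last 15 min; lysate pAKT(S473) by HTRF, IC50 from curves.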

[2] = system: T47D (PI3Kα-H1047R) cell line; experiment: HTRF phospho-AKT(S473) cell assay in T47D cells; type: cell-based, human
Outline: as §1

[3] = Homo sapiens, SK-BR-3; HTRF phospho-AKT(S473), SKBR3 (PI3Kα-Wild Type) cells, 2 hours compound incubation, PDGF-BB stimulated
[4] = Homo sapiens; HTRF phospho-AKT(S473), T47D (PI3Kα-H1047R) cells, 2 hours compound incubation
[5] = Homo sapiens, SK-BR-3; SKBR3 (PI3Kα-Wild Type) cells, HTRF phospho-AKT(S473), 2 hours compound incubation, PDGF-BB stimulated
[6] = Homo sapiens; T47D (PI3Kα-H1047R) cells, HTRF phospho-AKT(S473), 2 hours compound incubation

Row | IC50 [1, 3] | IC50 [2, 4] | IC50 [1, 5] | IC50 [2, 6] | SMILES
1 | ≥ 5000 nM | 250 to 500 nM | – | – | Cc1cc([C@@H](C)Nc2ccc(Cl)nc2C(=O)NS(C)(=O)=O)c2nc(N3C[C@H]4C[C@@H]3CN4c3ncc(F)cn3)n(C)c(=O)c2c1 [Compound 668, 6-chloro-3-(((R)-1-(2-((1R,4R)-5-(5-fluoropyrimidin-2-yl)-2,5-diazabicyclo [2.2.1]heptan-2-yl)-3,6-dimethyl-4-oxo-3,4-dihydroquinazolin-8-yl)ethyl)amino)-N-(methylsulfonyl) picolinamide]
2 | – | – | 1000 to 5000 nM | 250 to 500 nM | Cc1cc([C@@H](C)Nc2ccc(Cl)nc2C(=O)NS(C)(=O)=O)c2nc(-c3cnc(-c4ccn(C)n4)c(Cl)c3)n(C)c(=O)c2c1 [Compound 293, (R)-6-chloro-3-((1-(2-(5-chloro-6-(1-methyl-1H-pyrazol-3-yl)pyridin-3-yl)-3,6-dimethyl-4-oxo-3,4-dihydroquinazolin-8-yl)ethyl)amino)-N-(methylsulfonyl) picolinamide]
3 | – | – | 1000 to 5000 nM | < 250 nM | Cc1cc([C@@H](C)Nc2ccc(Cl)nc2C(=O)NS(C)(=O)=O)c2nc(N3CC[C@H](Oc4cc[nH]n4)C3)n(C)c(=O)c2c1 [Compound 362, 3-(((R)-1-(2-((S)-3-((1H-pyrazol-3-yl)oxy)pyrrolidin-1-yl)-3,6-dimethyl-4-oxo-3,4-dihydroquinazolin-8-yl)ethyl)amino)-6-chloro-N-(methylsulfonyl) picolinamide]
4 | 1000 to 5000 nM | 250 to 500 nM | – | – | Cc1cc([C@@H](C)Nc2ccc(Cl)nc2C(=O)NS(C)(=O)=O)c2nc(N3C[C@@H]4C[C@H]3C[C@H]4c3nn(C)cc3F)n(C)c(=O)c2c1 (relative stereo) [Compound 761, 6-chloro-3-(((R)-1-(2-((1R*,4S*,5S*)-5-(4-fluoro-1-methyl-1H-pyrazol-3-yl)-2-azabicyclo[2.2.1]heptan-2-yl)-3,6-dimethyl-4-oxo-3,4-dihydroquinazolin-8-yl)ethyl)amino)-N-(methylsulfonyl) picolinamide]
5 | ≥ 5000 nM | 250 to 500 nM | – | – | Cc1cc([C@@H](C)Nc2ccc(Cl)nc2C(=O)NS(C)(=O)=O)c2nc(N3CC[C@H](N(C)c4ncc(F)cn4)C3)n(C)c(=O)c2c1 [Compound 739, 6-chloro-3-(((R)-1-(2-((S)-3-((5-fluoropyrimidin-2-yl)(methyl)amino)pyrrolidin-1-yl)-3,6-dimethyl-4-oxo-3,4-dihydroquinazolin-8-yl)ethyl)amino)-N-(methylsulfonyl) picolinamide]
6 | 1000 to 5000 nM | < 250 nM | – | – | Cc1cc([C@@H](C)Nc2ccc(Cl)nc2C(=O)NS(C)(=O)=O)c2nc(N3C[C@@H]4[C@H](C3)[C@H]4c3cc4ncccn4n3)n(C)c(=O)c2c1 [Compound 508, 6-chloro-3-(((R)-1-(3,6-dimethyl-4-oxo-2-((1R,5S,6R)-6-(pyrazolo[1,5-a]pyrimidin-2-yl)-3-azabicyclo[3.1.0]hexan-3-yl)-3,4-dihydroquinazolin-8-yl)ethyl)amino)-N-(methylsulfonyl) picolinamide]
7 | – | – | 1000 to 5000 nM | < 250 nM | CCn1c(N2C[C@@H]3[C@H](C2)[C@H]3c2ccn(C)n2)nc2c([C@@H](C)Nc3ccc(Cl)nc3C(=O)NS(C)(=O)=O)cc(C)cc2c1=O [Compound 432, 6-chloro-3-(((R)-1-(3-ethyl-6-methyl-2-((1R,5S,6R)-6-(1-methyl-1H-pyrazol-3-yl)-3-azabicyclo[3.1.0]hexan-3-yl)-4-oxo-3,4-dihydroquinazolin-8-yl)ethyl)amino)-N-(methylsulfonyl) picolinamide]
8 | ≥ 5000 nM | 250 to 500 nM | – | – | Cc1cc([C@@H](C)Nc2ccc(Cl)nc2C(=O)NS(C)(=O)=O)c2nc(N3CC[C@@H](c4ccccc4)C3)n(C)c(=O)c2c1 [Compound 687, 6-chloro-3-(((R)-1-(3,6-dimethyl-4-oxo-2-((S)-3-phenylpyrrolidin-1-yl)-3,4-dihydroquinazolin-8-yl)ethyl)amino)-N-(methylsulfonyl) picolinamide]
9 | ≥ 5000 nM | 250 to 500 nM | – | – | Cc1cc([C@@H](C)Nc2ccc(Cl)nc2C(=O)NS(C)(=O)=O)c2nc(N3CC[C@H](Nc4ncc(Cl)cn4)C3)n(C)c(=O)c2c1 [Compound 738, 6-chloro-3-(((R)-1-(2-((S)-3-((5-chloropyrimidin-2-yl)amino)pyrrolidin-1-yl)-3,6-dimethyl-4-oxo-3,4-dihydroquinazolin-8-yl)ethyl)amino)-N-(methylsulfonyl) picolinamide]
10 | 1000 to 5000 nM | < 250 nM | – | – | Cc1cc([C@@H](C)Nc2ccc(Cl)nc2C(=O)NS(C)(=O)=O)c2nc(N3CCC(c4ncc(F)cn4)CC3)n(C)c(=O)c2c1 [Compound 486, (R)-6-chloro-3-((1-(2-(4-(5-fluoropyrimidin-2-yl)piperidin-1-yl)-3,6-dimethyl-4-oxo-3,4-dihydroquinazolin-8-yl)ethyl)amino)-N-(methylsulfonyl) picolinamide]
11 | 1000 to 5000 nM | < 250 nM | – | – | COc1cc([C@H]2[C@@H]3CN(c4nc5c([C@@H](C)Nc6ccc(Cl)nc6C(=O)NS(C)(=O)=O)cc(C)cc5c(=O)n4C)C[C@@H]32)n(C)n1 [Compound 519, 6-chloro-3-(((R)-1-(2-((1R,5S,6R)-6-(3-methoxy-1-methyl-1H-pyrazol-5-yl)-3-azabicyclo[3.1.0]hexan-3-yl)-3,6-dimethyl-4-oxo-3,4-dihydroquinazolin-8-yl)ethyl)amino)-N-(methylsulfonyl) picolinamide]
12 | ≥ 5000 nM | 250 to 500 nM | – | – | Cc1cc([C@@H](C)Nc2ccc(Cl)nc2C(=O)NS(C)(=O)=O)c2nc(N3CCC(c4cc5ccccn5n4)CC3)n(C)c(=O)c2c1 [Compound 692, (R)-6-chloro-3-((1-(3,6-dimethyl-4-oxo-2-(4-(pyrazolo[1,5-a]pyridin-2-yl)piperidin-1-yl)-3,4-dihydroquinazolin-8-yl)ethyl)amino)-N-(methylsulfonyl) picolinamide]
13 | 1000 to 5000 nM | < 250 nM | – | – | Cc1cc([C@@H](C)Nc2ccc(Cl)nc2C(=O)NS(C)(=O)=O)c2nc(-c3ccc4nn(CC5CC5)cc4c3)n(C)c(=O)c2c1 [Compound 795, (R)-6-chloro-3-((1-(2-(2-(cyclopropylmethyl)-2H-indazol-5-yl)-3,6-dimethyl-4-oxo-3,4-dihydroquinazolin-8-yl)ethyl)amino)-N-(methylsulfonyl) picolinamide]
14 | – | – | ≥ 5000 nM | 250 to 500 nM | Cc1cc([C@@H](C)Nc2ccc(Cl)nc2C(=O)NS(C)(=O)=O)c2nc(N3C[C@@H]4[C@H](C3)[C@H]4c3ccc(N(C)C)nc3)n(C)c(=O)c2c1 [Compound 393, 6-chloro-3-(((R)-1-(2-((1R,5S,6S)-6-(6-(dimethylamino)pyridin-3-yl)-3-azabicyclo[3.1.0]hexan-3-yl)-3,6-dimethyl-4-oxo-3,4-dihydroquinazolin-8-yl)ethyl)amino)-N-(methylsulfonyl) picolinamide]
15 | – | – | 1000 to 5000 nM | 250 to 500 nM | Cc1cc([C@@H](C)Nc2ccc(Cl)nc2C(=O)NS(C)(=O)=O)c2nc(N3CCO[C@H](c4cnn(C)c4)C3)n(C)c(=O)c2c1 (relative stereo) [Compound 313, 6-chloro-3-(((R)-1-(3,6-dimethyl-2-((R*)-2-(1-methyl-1H-pyrazol-4-yl)morpholino)-4-oxo-3,4-dihydroquinazolin-8-yl)ethyl)amino)-N-(methylsulfonyl) picolinamide]
16 | ≥ 5000 nM | 250 to 500 nM | – | – | Cc1cc([C@@H](C)Nc2ccc(Cl)nc2C(=O)NS(C)(=O)=O)c2nc(N3C[C@@H]4[C@H](C3)[C@H]4c3nc(C)n(C(F)F)n3)n(C)c(=O)c2c1 [Compound 642, 6-chloro-3-(((R)-1-(2-((1R,5S,6R)-6-(1-(difluoromethyl)-5-methyl-1H-1,2,4-triazol-3-yl)-3-azabicyclo[3.1.0]hexan-3-yl)-3,6-dimethyl-4-oxo-3,4-dihydroquinazolin-8-yl)ethyl)amino)-N-(methylsulfonyl) picolinamide]
17 | ≥ 5000 nM | 250 to 500 nM | – | – | Cc1cc([C@@H](C)Nc2ccc(Cl)nc2C(=O)NS(C)(=O)=O)c2nc(N3CCC4(CCc5c[nH]nc54)CC3)n(C)c(=O)c2c1 [Compound 682, (R)-6-chloro-3-((1-(2-(4,5-dihydro-2H-spiro [cyclopenta[c]pyrazole-6,4′-piperidin]-1′-yl)-3,6-dimethyl-4-oxo-3,4-dihydroquinazolin-8-yl)ethyl)amino)-N-(methylsulfonyl) picolinamide]
18 | – | – | ≥ 5000 nM | < 250 nM | Cc1cc([C@@H](C)Nc2ccc(Cl)nc2C(=O)NS(=O)(=O)c2ccncc2)c2nc(N3Cc4ccc(F)cc4C3)n(C)c(=O)c2c1 [Compound 170, (R)-6-chloro-3-((1-(2-(5-fluoroisoindolin-2-yl)-3,6-dimethyl-4-oxo-3,4-dihydroquinazolin-8-yl)ethyl)amino)-N-(pyridin-4-ylsulfonyl)picolinamide]
19 | 1000 to 5000 nM | 250 to 500 nM | – | – | Cc1cc([C@@H](C)Nc2ccc(Cl)nc2C(=O)NS(C)(=O)=O)c2nc(N3CCC[C@@H](c4cnccn4)C3)n(C)c(=O)c2c1 (relative stereo) [Compound 618, 6-chloro-3-(((R)-1-(3,6-dimethyl-4-oxo-2-((R*)-3-(pyrazin-2-yl)piperidin-1-yl)-3,4-dihydroquinazolin-8-yl)ethyl)amino)-N-(methylsulfonyl) picolinamide]
20 | 1000 to 5000 nM | < 250 nM | – | – | CC(=O)N1CCN(c2ccc(-c3nc4c([C@@H](C)Nc5ccc(Cl)nc5C(=O)NS(C)(=O)=O)cc(C)cc4c(=O)n3C)c(F)c2)CC1 [Compound 785, (R)-3-((1-(2-(4-(4-acetylpiperazin-1-yl)-2-fluorophenyl)-3,6-dimethyl-4-oxo-3,4-dihydroquinazolin-8-yl)ethyl)amino)-6-chloro-N-(methylsulfonyl) picolinamide]
